Literature values in patent publication US20240139186A1, “METHODS OF TREATING HIV” (Janssen Sciences Ireland Unlimited Company, priority 2019, published 2024).

Conditions: adult and pediatric participants receiving abacavir in clinical studies

SMILES: Nc1nc(NC2CC2)c2ncn([C@H]3C=C[C@@H](CO)C3)c2n1 [abacavir]
- hypersensitivity reactions reported, proportion of participants: approximately 5%
